From ChEMBL document CHEMBL5230097, “Structure-based design of covalent inhibitors targeting metallo-β-lactamases” (Eur J Med Chem, 2020)

Legend:
[1] = Inhibition of Bacillus cereus II metallo-beta-lactamase using nitrocefin as substrate incubated for 5 mins by spectrophotometric analysis
[2] = Inhibition of metallo-beta-lactamase ImiS (unknown origin) expressed in Escherichia coli BL21 (DE3) assessed as substrate hydrolysis using imipenem as substrate by spectrometric analysis; parameters: species or system Bacteria
[3] = Inhibition of metallo-beta-lactamase IMP-1 (unknown origin) expressed in Escherichia coli BL21 (DE3) assessed as substrate hydrolysis using imipenem as substrate by spectrometric analysis; parameters: species or system Bacteria
[4] = Inhibition of Metallo-beta-lactamase NDM-1 (unknown origin) expressed in Escherichia coli BL21 (DE3) assessed as substrate hydrolysis using imipenem as substrate by spectrometric analysis; parameters: species or system Bacteria
[5] = Inhibition of Metallo-beta-lactamase NDM-1 in Escherichia coli BL21 (DE3) assessed as substrate hydrolysis using cefazolin as substrate preincubated for 20 hrs followed by substrate by spectrometric analysis
[6] = Inhibition of wild type metallo-beta-lactamase IMP-1 (unknown origin) assessed as inhibition constant using nitrocefin as substrate preincubated with compound followed by substrate addition and measured for 60 sec by spectroscopic analysis; parameters: species or system Bacteria
[7] = Inhibition of Escherichia coli metallo-beta-lactamase NDM-1 assessed as substrate hydrolysis using cefazolin as substrate preincubated for 12 hrs followed by substrate by UV-Vis spectrophotometric analysis
[8] = Inhibition of Metallo-beta-lactamase NDM-1 in Escherichia coli BL21 assessed as inhibition constant using nitrocefin as substrate preincubated for 20 mins followed by substrate and measured after 30 mins by spectrophotometric analysis

SMILES | IC50 [2] [nM] | IC50 [3] [nM] | IC50 [4] [nM] | further results
C[C@@H](NC(=O)c1ccccc1)C(=O)SCC(=O)O |  |  |  | IC50 [1]: 645000 nM
CCCCN(CCCC)C(=S)SSC(=S)N(CCCC)CCCC | 1800 | 530 | 260 | 
O=c1c2ccccc2sn1-c1ccccc1 |  |  |  | IC50 [5]: 160 nM
O=C(CCSC(=O)CCS)Oc1c(F)c(F)c(F)c(F)c1F |  |  |  | Ki [6]: 420 nM
O=C(CCS)Oc1c(F)c(F)c(F)c(F)c1F |  |  |  | Ki [6]: 3450 nM
C[C@@H](NC(=O)Cc1ccccc1)C(=O)SCC(=O)O |  |  |  | IC50 [1]: 479000 nM
S=C(SSC(=S)N(Cc1ccccc1)Cc1ccccc1)N(Cc1ccccc1)Cc1ccccc1 [BIS(DIBENZYLAMINETHIOCARBONYL)DISULFIDE] | 2600 | 1700 | 320 | 
S=C(SSC(=S)N1CCCCC1)N1CCCCC1 [BIS(PIPERIDINYLTHIOCARBONYL)DISULFIDE] | 490 | 880 | 140 | 
O=C(O)C(=O)CBr [BROMOPYRUVATE] |  |  |  | IC50 [7]: 2570 nM
O=c1c2ccccc2[se]n1-c1ccccc1 [EBSELEN] |  |  |  | Ki [8]: 380 nM

Now from value to compound, other results behind:

IC50 [2] [nM] | IC50 [3] [nM] | IC50 [4] [nM] | SMILES | further results
3700 | 950 | 120 | S=C(SSC(=S)N1CCCC1)N1CCCC1 [BIS(PYRROLIDINYLTHIOCARBONYL)DISULFIDE] | 
3600 | 2900 | 130 | CCN(CC)C(=S)SSC(=S)N(CC)CC [DISULFIRAM] | 
